15 compounds from PubChem BioAssay (NCI) can be followed below.

“And” between values parts separate entries of the source, which are not always exact repeats. Identical values can stand only once.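 A five-concentration, 48-hour dose response in 96-well plates underlies each endpoint, interpolated linearly between surrounding concentrations. GI50 marks 50% less growth. TGI marks complete inhibition of growth.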

Among the test systems are CAKI-1 renal; HCT-116 colon; LOX IMVI melanoma; MDA-MB-435; MOLT-4 leukemia; NCI-H226 lung; NCI/ADR-RES ovarian; SF-295 CNS; SK-MEL-5 melanoma; SNB-75 CNS; HCC-2998 colon.
What all share (assay): NCI-60 cell line screen, 48 h

As for `COC(=O)CNCC1OC2OC(C)(C)OC2C1N=[N+]=[N-]` (stereo not drawn), the TGI in the experiment with CAKI-1 renal, in the experiment with HCT-116 colon, with LOX IMVI melanoma, with MDA-MB-435, with MOLT-4 leukemia and in the experiment with NCI-H226 lung was over 100 µM throughout. Also, the TGI in the experiment with NCI/ADR-RES ovarian, with SF-295 CNS, in the experiment with SK-MEL-5 melanoma and in the experiment with SNB-75 CNS was over 100 µM throughout.

Regarding `Cc1cc(Cl)ccc1NC(=O)C(=O)Cc1occc(=O)c1O`, the TGI in the experiment with CAKI-1 renal, with HCC-2998 colon, in the experiment with HCT-116 colon, in the experiment with LOX IMVI melanoma, with MOLT-4 leukemia and in the experiment with NCI-H226 lung was over 100 µM in each case. Further, the TGI in the experiment on SF-295 CNS, with SK-MEL-5 melanoma and in the experiment with SNB-75 CNS was over 100 µM throughout.

With `OC1(c2ccc3ccccc3c2)c2c(c3ccccc3c3ccccc23)C2=NCCN21` (stereo not drawn), the TGI in the experiment with CAKI-1 renal is over 100 µM; in the experiment with HCT-116 colon, 10.3 µM; with LOX IMVI melanoma, 5.41 µM; in the experiment with MDA-MB-435, 5.1 µM; in the experiment on MOLT-4 leukemia it was over 100 µM; with NCI-H226 lung, over 100 µM. The TGI in the experiment with NCI/ADR-RES ovarian was 5.22 µM; with SF-295 CNS it was 12.2 µM; with SK-MEL-5 melanoma it was over 100 µM; in the experiment with SNB-75 CNS it was 14.7 µM.

With `O=C1c2c(ccc3c2CCCC3)CC1Cc1ccc2c(c1)CCCC2` (stereo not drawn), the TGI with HCC-2998 colon, in the experiment on HCT-116 colon, in the experiment on LOX IMVI melanoma, in the experiment with MDA-MB-435, with MOLT-4 leukemia and with NCI-H226 lung was over 100 µM each time. The TGI in the experiment with SF-295 CNS, in the experiment on SK-MEL-5 melanoma and in the experiment on SNB-75 CNS was over 100 µM each time.

For the compound `CN(C)C(=O)Oc1ccc(C(=S)Nc2ccccc2)cc1Br`, the TGI in the experiment on CAKI-1 renal is over 100 µM; in the experiment with HCC-2998 colon, over 100 µM; in the experiment on HCT-116 colon, over 100 µM; with LOX IMVI melanoma it was 45.8 µM; in the experiment with MDA-MB-435, 43.9 µM; with MOLT-4 leukemia, 38.1 µM. Also, the TGI in the experiment on NCI/ADR-RES ovarian is 63.9 µM; in the experiment with SF-295 CNS, over 100 µM; in the experiment on SK-MEL-5 melanoma, 32.2 µM.

Turning to `O=C1Nc2ccc(Br)cc2/C1=C/C(=O)c1ccccc1`, the TGI is 20 µM in the experiment on CAKI-1 renal; 29 µM in the experiment with HCC-2998 colon; 9.04 µM in the experiment with HCT-116 colon; 4.02 µM with LOX IMVI melanoma; 42 µM with MDA-MB-435; over 26.4 µM in the experiment with MOLT-4 leukemia. The TGI with NCI-H226 lung turned out to be 43.8 µM; in the experiment with SF-295 CNS, 32.5 µM; in the experiment on SK-MEL-5 melanoma it was 41.7 µM; in the experiment on SNB-75 CNS, 32 µM.

With `CCc1n[nH]c(=S)n1/N=C\c1ccc(-c2ccccc2[N+](=O)[O-])o1`, the TGI was over 100 µM with CAKI-1 renal; over 100 µM with HCT-116 colon; over 100 µM in the experiment on LOX IMVI melanoma; 39.4 µM with MDA-MB-435; 57.8 µM with MOLT-4 leukemia; 54.1 µM with NCI-H226 lung. The TGI was 81.5 µM with NCI/ADR-RES ovarian, over 100 µM in the experiment with SF-295 CNS, 33.7 µM in the experiment with SK-MEL-5 melanoma and over 100 µM with SNB-75 CNS.

For `CC(=O)O/N=C/c1cc2c(cc1Br)OCO2`, the TGI with CAKI-1 renal, in the experiment on HCC-2998 colon, in the experiment on LOX IMVI melanoma, with MOLT-4 leukemia, with SF-295 CNS and with SK-MEL-5 melanoma was over 349 µM throughout.

Take `c1ccc(CSC(SCc2ccccc2)c2ccc3c(c2)OCO3)cc1`: the TGI in the experiment on CAKI-1 renal, with HCC-2998 colon, in the experiment with HCT-116 colon, in the experiment with LOX IMVI melanoma, in the experiment with MOLT-4 leukemia and in the experiment on NCI-H226 lung was over 10 µM in each case. Besides, the TGI with NCI/ADR-RES ovarian, with SF-295 CNS, in the experiment with SK-MEL-5 melanoma and in the experiment on SNB-75 CNS was over 10 µM in each case.

For `O=C1c2ccccc2C(=O)c2c(O)c(NCCNCCO)cc(O)c21`, the TGI with CAKI-1 renal stood at 14.2 µM; in the experiment on HCC-2998 colon, 13.7 µM; in the experiment with HCT-116 colon, 11.9 µM; in the experiment with LOX IMVI melanoma, 15.5 µM; with MOLT-4 leukemia it was 10.4 µM; with NCI-H226 lung it was 14.9 µM. Further, the TGI in the experiment with SF-295 CNS came to 22.2 µM; in the experiment on SK-MEL-5 melanoma, 13.1 µM; in the experiment with SNB-75 CNS, 17.9 µM.

In the case of `CCOC(=O)c1c(NC(=O)c2ccc(Br)cc2)sc2c1CCCC2`, the TGI in the experiment on CAKI-1 renal, with HCT-116 colon, in the experiment on MDA-MB-435, in the experiment with MOLT-4 leukemia, with NCI-H226 lung and with SF-295 CNS was over 100 µM throughout. Besides, in the experiment with SK-MEL-5 melanoma, the TGI was over 100 µM.

Take `CC(C)c1cccc(C(C)C)c1NC(=O)C(=O)C1SC(=S)NC1=O` (stereo not drawn): the TGI with CAKI-1 renal, with HCT-116 colon, with LOX IMVI melanoma, in the experiment with MOLT-4 leukemia, in the experiment with NCI-H226 lung and in the experiment with SF-295 CNS was over 100 µM throughout. The TGI with SK-MEL-5 melanoma and with SNB-75 CNS was over 100 µM each time.

In the case of `C(=N/NC1=NCCN1)/c1c2ccccc2c(/C=N\NC2=NCCN2)c2ccccc12`, the TGI in the experiment with CAKI-1 renal was 2.78 µM and 5.02 µM and 6.65 µM; with HCC-2998 colon, 0.439 µM and 0.47 µM and 0.658 µM; with HCT-116 colon, 0.468 µM and 1.18 µM and 1.21 µM; with LOX IMVI melanoma, 0.27 µM and 0.332 µM and 1.75 µM; with MDA-MB-435 it was 0.271 µM and 0.477 µM; in the experiment with NCI-H226 lung it was 0.352 µM and 0.239 µM and 0.445 µM. Further, the TGI is 1.98 µM and 2.11 µM and 2.71 µM with SF-295 CNS; 0.214 µM and 0.896 µM and 0.761 µM in the experiment on SK-MEL-5 melanoma; 0.054 µM and 0.426 µM and 0.44 µM in the experiment with SNB-75 CNS. In addition, in the experiment with MDA-MB-435, the GI50 is 155 nM.

With `COc1ccc(/C=C(\Cl)c2ccc(OC)cc2)cc1`, the TGI in the experiment on CAKI-1 renal, in the experiment with HCC-2998 colon, in the experiment with HCT-116 colon, in the experiment with LOX IMVI melanoma, in the experiment with MOLT-4 leukemia and with NCI-H226 lung was over 100 µM in each case. For the same compound, the TGI with SK-MEL-5 melanoma and in the experiment on SNB-75 CNS was over 100 µM each time.

Regarding `Cc1nc2nn(C)cc2c(=O)n1/N=C/c1ccccc1`, the TGI with HCC-2998 colon, in the experiment with HCT-116 colon, in the experiment with LOX IMVI melanoma, with MOLT-4 leukemia, in the experiment on NCI-H226 lung and in the experiment on SF-295 CNS was over 100 µM each time. Also, the TGI with SK-MEL-5 melanoma and in the experiment on SNB-75 CNS was over 100 µM each time.
